Consider 10 compounds from US11629143B2, “HipK4 inhibitors and uses thereof” (Vibliome Therapeutics, LLC, priority 2020, dated 2023).

Holding throughout (assay): Kinase panel (mobility shift)
Common to all, as to assay type: biochemical

The target in one experiment is BRK (Homo sapiens, UniProt Q13882). On the procedure: (§1) The disclosed compounds were tested for activity against a panel of 299 kinases. The target enzyme was incubated with fluorescently labeled substrate and test compounds in a standardized reaction mixture in 384 well plates. Upon termination of the reaction, samples were introduced onto microfluidic chips. The samples migrated through channels in the chips and product and substrate were separated based on the difference in their charge (electrophoretic mobility shift). Enzyme activity was measured by direct comparison of the fluorescence in the product and substrate peaks. […] In the tables A=95% or greater at 5 um, B=90%-94% at 5 um, and C=80%-89% at 5 um. [note to draft: we included category D for 50-79 and category E is less than 50%. Feel free to remove if not needed)

The target in another experiment is EPH-A5 (Homo sapiens, UniProt P54756). Particulars: at 5 um. On the procedure: as §1
Another experiment deals with T1, EPH-B2 (Homo sapiens, UniProt P29323).
T1 sequence (P29323 19-1055): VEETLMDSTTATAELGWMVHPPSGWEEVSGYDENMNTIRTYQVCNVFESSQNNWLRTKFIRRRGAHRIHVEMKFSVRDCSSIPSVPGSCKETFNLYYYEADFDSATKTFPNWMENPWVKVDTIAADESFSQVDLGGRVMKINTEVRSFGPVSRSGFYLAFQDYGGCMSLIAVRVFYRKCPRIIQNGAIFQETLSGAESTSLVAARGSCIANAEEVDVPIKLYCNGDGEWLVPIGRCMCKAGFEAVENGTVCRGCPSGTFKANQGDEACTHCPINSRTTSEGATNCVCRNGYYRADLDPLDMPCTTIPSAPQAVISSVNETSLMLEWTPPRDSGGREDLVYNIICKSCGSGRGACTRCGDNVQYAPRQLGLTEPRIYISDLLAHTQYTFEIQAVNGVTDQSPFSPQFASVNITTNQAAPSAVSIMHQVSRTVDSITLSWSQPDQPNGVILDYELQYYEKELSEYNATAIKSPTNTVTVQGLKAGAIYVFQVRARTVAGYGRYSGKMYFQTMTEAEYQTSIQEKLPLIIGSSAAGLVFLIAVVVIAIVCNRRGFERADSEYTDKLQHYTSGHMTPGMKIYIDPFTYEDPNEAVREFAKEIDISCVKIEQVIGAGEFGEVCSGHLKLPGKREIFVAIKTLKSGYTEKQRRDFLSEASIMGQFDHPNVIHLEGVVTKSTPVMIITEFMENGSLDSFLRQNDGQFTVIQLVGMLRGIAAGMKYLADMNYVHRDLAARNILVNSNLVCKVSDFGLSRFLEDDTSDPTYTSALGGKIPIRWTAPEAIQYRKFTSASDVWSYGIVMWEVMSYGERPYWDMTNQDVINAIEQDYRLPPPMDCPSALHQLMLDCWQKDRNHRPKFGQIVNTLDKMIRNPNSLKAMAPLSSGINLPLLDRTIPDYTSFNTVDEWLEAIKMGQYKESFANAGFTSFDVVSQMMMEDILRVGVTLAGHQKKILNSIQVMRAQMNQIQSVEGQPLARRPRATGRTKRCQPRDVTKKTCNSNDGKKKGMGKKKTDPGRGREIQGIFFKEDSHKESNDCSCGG
As to conditions: at 5 um. On the procedure:
as §1

Another experiment concerns the target T2, EPH-B4 (Homo sapiens, UniProt P54760).
T2 sequence (P54760 16-987): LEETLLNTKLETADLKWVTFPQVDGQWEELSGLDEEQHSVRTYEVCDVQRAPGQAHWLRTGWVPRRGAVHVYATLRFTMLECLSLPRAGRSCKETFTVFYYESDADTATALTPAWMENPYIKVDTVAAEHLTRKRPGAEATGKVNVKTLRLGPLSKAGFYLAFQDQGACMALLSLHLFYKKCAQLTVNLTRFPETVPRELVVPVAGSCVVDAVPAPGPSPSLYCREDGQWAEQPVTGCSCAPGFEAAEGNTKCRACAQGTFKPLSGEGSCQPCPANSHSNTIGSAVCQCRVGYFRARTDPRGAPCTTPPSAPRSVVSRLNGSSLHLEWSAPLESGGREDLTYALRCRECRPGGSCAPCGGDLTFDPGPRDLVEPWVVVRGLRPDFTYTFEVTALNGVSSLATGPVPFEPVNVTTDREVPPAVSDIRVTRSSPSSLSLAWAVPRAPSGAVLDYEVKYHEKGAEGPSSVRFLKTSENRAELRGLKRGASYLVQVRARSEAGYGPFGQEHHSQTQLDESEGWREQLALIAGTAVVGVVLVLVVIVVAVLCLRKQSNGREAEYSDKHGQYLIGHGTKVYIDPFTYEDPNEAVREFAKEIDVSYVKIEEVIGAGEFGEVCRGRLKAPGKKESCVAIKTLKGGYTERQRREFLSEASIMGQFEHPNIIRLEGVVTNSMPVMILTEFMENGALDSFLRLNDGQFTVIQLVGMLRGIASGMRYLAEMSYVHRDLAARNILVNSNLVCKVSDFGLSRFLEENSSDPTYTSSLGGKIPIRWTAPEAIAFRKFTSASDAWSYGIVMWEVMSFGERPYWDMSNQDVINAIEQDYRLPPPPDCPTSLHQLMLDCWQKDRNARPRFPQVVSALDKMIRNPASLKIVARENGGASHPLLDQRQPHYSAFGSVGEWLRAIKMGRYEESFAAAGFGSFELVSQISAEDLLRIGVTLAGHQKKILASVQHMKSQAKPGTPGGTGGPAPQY
On the procedure: as §1

The target of another experiment is HIPK3 (Homo sapiens, UniProt Q9H422). Here is the method: as §1
The next experiment concerns the target LCK (Homo sapiens, UniProt P06239). On the procedure:
as §1

In a further experiment the target is LOK (Homo sapiens, UniProt O94804). As to conditions: at 5 um. On the procedure: as §1
The target in another experiment is P38-b (Homo sapiens, UniProt Q15759). Here is the method:
as §1

Another experiment concerns the target TRKA (Homo sapiens, UniProt P04629). Here is the method: as §1

LCK, sequence (P06239 whole entry, species assumed): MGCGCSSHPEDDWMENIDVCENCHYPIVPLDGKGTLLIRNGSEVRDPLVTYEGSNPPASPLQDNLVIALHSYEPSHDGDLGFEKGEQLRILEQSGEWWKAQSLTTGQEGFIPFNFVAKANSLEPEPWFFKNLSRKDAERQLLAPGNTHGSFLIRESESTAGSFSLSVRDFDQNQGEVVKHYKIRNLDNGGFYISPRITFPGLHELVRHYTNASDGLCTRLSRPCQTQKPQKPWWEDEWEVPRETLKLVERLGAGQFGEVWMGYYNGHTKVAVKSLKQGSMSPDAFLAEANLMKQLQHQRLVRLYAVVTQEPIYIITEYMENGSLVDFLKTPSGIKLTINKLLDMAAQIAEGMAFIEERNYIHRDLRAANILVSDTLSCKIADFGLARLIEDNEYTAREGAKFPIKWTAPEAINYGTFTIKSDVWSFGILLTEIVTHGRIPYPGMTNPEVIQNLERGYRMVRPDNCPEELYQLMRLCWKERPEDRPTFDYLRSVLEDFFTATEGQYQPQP
BRK, sequence (Q13882 whole entry, species assumed): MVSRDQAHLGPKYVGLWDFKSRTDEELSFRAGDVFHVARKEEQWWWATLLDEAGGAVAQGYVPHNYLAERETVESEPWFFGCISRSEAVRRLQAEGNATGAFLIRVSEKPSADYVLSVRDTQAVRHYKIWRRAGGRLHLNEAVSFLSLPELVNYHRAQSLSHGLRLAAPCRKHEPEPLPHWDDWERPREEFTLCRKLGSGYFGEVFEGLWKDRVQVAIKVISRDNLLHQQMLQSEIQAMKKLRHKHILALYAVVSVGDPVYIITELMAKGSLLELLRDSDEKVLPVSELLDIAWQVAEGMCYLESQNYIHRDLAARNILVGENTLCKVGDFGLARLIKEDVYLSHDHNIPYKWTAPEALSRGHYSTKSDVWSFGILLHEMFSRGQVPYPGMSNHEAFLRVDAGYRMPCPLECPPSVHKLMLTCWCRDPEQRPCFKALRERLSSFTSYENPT
TRKA, sequence (P04629 33-796, species assumed): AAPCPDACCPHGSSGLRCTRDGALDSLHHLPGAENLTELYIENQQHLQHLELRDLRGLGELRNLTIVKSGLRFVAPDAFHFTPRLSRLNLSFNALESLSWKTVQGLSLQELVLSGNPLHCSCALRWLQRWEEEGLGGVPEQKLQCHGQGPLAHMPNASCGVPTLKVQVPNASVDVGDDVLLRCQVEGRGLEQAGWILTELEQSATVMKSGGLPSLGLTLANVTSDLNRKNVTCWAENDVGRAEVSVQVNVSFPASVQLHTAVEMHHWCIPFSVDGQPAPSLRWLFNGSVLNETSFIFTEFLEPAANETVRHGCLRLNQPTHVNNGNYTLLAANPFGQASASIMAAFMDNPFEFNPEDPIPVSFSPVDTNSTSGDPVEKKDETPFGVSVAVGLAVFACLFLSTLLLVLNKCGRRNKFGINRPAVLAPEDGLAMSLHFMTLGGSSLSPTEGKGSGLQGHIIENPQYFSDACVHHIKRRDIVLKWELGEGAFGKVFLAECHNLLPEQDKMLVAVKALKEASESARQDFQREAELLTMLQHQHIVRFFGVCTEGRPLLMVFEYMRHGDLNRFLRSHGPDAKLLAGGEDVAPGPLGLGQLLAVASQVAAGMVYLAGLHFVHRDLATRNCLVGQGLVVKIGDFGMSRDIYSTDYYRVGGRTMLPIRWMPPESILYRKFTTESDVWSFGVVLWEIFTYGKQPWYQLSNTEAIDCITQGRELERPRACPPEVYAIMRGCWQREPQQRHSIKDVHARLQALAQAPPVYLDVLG
EPH-A5, sequence (P54756 25-1037, species assumed): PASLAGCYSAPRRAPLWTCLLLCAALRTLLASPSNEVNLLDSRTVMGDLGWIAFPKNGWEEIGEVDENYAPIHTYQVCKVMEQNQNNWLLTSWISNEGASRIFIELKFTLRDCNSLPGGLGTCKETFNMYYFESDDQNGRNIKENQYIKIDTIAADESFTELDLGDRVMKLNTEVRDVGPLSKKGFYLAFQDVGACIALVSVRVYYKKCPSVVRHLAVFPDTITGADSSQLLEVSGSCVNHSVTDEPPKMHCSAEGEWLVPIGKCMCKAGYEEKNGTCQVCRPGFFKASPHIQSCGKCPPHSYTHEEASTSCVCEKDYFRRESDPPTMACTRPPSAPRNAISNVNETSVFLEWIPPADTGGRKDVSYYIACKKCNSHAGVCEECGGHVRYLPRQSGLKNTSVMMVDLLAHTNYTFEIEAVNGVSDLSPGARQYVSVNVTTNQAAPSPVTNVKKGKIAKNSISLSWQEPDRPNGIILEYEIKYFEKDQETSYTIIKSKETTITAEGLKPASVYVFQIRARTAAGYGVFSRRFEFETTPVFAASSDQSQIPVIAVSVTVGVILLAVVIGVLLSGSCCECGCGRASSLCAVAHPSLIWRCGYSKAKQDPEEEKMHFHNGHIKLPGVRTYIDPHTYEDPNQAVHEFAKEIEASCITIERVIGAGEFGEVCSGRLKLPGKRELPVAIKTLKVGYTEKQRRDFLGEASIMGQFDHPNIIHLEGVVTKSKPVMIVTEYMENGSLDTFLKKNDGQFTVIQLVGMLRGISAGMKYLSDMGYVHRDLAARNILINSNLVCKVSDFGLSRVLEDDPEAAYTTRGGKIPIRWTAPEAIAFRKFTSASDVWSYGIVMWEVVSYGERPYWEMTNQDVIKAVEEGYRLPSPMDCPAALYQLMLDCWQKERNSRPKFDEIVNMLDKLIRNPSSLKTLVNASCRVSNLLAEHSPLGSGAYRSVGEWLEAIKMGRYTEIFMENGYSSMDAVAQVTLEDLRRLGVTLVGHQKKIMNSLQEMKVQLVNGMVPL
HIPK3, sequence (Q9H422 whole entry, species assumed): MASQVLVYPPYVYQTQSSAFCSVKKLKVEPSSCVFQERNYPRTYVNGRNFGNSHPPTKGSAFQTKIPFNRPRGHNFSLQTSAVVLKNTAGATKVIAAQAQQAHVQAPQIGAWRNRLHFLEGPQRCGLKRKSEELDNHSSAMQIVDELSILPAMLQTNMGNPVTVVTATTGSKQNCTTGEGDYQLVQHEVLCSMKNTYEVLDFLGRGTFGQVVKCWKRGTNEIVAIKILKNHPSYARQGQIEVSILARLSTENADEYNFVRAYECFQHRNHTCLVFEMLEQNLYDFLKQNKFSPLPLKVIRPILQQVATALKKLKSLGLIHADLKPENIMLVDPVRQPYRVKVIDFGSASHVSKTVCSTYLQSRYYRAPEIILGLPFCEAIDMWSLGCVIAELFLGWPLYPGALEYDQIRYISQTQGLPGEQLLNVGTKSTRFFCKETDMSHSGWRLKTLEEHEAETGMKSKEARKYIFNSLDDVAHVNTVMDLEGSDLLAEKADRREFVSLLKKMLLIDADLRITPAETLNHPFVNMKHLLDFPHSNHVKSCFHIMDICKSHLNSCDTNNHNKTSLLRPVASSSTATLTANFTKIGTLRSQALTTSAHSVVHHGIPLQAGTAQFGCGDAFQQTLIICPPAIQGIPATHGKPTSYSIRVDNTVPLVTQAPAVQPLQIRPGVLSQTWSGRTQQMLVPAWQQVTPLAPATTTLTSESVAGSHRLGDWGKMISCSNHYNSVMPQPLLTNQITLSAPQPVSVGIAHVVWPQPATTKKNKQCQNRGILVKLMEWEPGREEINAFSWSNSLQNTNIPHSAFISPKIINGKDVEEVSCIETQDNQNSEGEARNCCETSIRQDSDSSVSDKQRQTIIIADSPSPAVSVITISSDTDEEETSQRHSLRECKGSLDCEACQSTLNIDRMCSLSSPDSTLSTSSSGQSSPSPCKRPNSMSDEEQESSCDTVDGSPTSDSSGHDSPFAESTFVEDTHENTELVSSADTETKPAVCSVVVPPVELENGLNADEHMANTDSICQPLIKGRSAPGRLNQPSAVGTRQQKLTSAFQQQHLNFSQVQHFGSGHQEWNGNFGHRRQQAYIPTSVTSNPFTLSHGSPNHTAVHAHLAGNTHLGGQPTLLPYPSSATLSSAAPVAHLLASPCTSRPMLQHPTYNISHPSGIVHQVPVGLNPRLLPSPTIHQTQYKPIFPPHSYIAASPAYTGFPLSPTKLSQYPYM
LOK, sequence (O94804 whole entry, species assumed): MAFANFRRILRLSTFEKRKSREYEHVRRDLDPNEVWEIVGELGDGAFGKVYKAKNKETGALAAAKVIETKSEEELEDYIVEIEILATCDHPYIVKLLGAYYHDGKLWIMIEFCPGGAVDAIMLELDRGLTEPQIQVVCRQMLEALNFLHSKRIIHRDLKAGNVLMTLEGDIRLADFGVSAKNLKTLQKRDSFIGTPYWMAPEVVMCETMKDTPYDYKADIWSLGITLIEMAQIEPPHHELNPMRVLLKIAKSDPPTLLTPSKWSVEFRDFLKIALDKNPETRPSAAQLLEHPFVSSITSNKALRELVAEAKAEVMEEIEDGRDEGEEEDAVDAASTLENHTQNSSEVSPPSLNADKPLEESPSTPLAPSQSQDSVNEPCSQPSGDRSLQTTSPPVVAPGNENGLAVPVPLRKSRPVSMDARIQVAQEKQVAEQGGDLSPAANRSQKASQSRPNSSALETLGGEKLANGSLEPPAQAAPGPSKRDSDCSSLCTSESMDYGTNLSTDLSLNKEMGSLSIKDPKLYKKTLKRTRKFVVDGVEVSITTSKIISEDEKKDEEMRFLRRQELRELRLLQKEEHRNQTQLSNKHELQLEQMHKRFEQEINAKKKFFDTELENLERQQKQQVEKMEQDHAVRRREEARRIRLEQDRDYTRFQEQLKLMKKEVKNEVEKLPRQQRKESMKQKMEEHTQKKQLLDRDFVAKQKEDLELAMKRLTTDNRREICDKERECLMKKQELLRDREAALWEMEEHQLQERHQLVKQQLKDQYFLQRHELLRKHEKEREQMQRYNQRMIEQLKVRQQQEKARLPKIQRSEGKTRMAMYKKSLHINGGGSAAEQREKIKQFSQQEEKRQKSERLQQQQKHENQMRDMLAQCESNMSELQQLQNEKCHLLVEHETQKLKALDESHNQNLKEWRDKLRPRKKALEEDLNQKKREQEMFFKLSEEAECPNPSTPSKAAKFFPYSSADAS

Consider `CNC(=O)c1cc(Oc2ccc(NC(=O)c3nc(NC)oc3-c3ccc(F)cc3)cc2F)ccn1` [Compound 14], for which the inhibition at 5 µM is 80 to 89% at BRK; 50 to 79% at EPH-B4; 50 to 79% at HIPK3; 50 to 79% at LCK; under 50% at P38-b; 80 to 89% at TRKA. Also, the “inhibition of kinase activity, EPH-A5” value at EPH-A5 is given as “D (category D for 50-79)”. In addition, the “inhibition of kinase activity, EPH-B2” value at EPH-B2 is reported as “D (category D for 50-79)”. Further, the “inhibition of kinase activity, LOK” value at LOK is listed as “C (C=80%-89% at 5 um)”.
For the compound `CNC(=O)c1cc(Oc2ccc(NC(=O)c3nc(OC)oc3-c3ccc(F)cc3)cc2F)ccn1` [Compound 15], the inhibition at 5 µM at BRK was 50 to 79%; on EPH-B4, 50 to 79%; at HIPK3, 50 to 79%; on LCK it was 50 to 79%; on P38-b it was under 50%; at TRKA, 50 to 79%. Besides, the “inhibition of kinase activity, EPH-A5” value on EPH-A5 was “D (category D for 50-79)”. At EPH-B2, the “inhibition of kinase activity, EPH-B2” value was “D (category D for 50-79)”. Also, at LOK, the “inhibition of kinase activity, LOK” value is “C (C=80%-89% at 5 um)”.
For the compound `CNC(=O)c1cc(Oc2ccc(NC(=O)c3nc(SC)oc3-c3ccc(F)s3)cc2F)ccn1` [Compound 16], the inhibition at 5 µM at BRK, at EPH-B4, on HIPK3, on LCK, on P38-b and on TRKA was under 50% in each case. Further, the “inhibition of kinase activity, EPH-A5” value on EPH-A5 is listed as “E (category E is less than 50%)”. Besides, at EPH-B2, the “inhibition of kinase activity, EPH-B2” value is reported as “D (category D for 50-79)”. For the same compound, the “inhibition of kinase activity, LOK” value at LOK is on record as “D (category D for 50-79)”.
`CNC(=O)c1cc(Oc2ccc(NC(=O)c3nc(NC)oc3-c3ccc(F)s3)cc2F)ccn1` [Compound 17]: the inhibition at 5 µM is under 50% on BRK; under 50% on EPH-B4; under 50% at HIPK3; under 50% on LCK; under 50% at P38-b; 50 to 79% on TRKA. Besides, the “inhibition of kinase activity, EPH-A5” value on EPH-A5 is “E (category E is less than 50%)”. Also, the “inhibition of kinase activity, EPH-B2” value at EPH-B2 is listed as “E (category E is less than 50%)”. Also, the “inhibition of kinase activity, LOK” value at LOK is listed as “D (category D for 50-79)”.
Consider `CNC(=O)c1cc(Oc2c(F)cc(NC(=O)c3nc(NC)sc3-c3ccc(F)cc3)cc2F)ccn1` [Compound 19], for which the inhibition at 5 µM is 50 to 79% at BRK; 50 to 79% on EPH-B4; under 50% at HIPK3; 50 to 79% on LCK; under 50% at P38-b; 50 to 79% at TRKA. Also, at EPH-A5, the “inhibition of kinase activity, EPH-A5” value was “D (category D for 50-79)”. Further, on EPH-B2, the “inhibition of kinase activity, EPH-B2” value was “D (category D for 50-79)”. Further, on LOK, the “inhibition of kinase activity, LOK” value is “D (category D for 50-79)”.
`CNC(=O)c1cc(Oc2ccc(NC(=O)c3nc(NC)sc3-c3ccc(F)cc3F)cc2F)ccn1` [Compound 21]: the inhibition at 5 µM at BRK was under 50%; on EPH-B4, under 50%; at HIPK3 it was 50 to 79%; at LCK it was under 50%; at P38-b, under 50%; on TRKA, 50 to 79%. The “inhibition of kinase activity, EPH-A5” value at EPH-A5 is “D (category D for 50-79)”. The “inhibition of kinase activity, EPH-B2” value at EPH-B2 is “D (category D for 50-79)”. For the same compound, the “inhibition of kinase activity, LOK” value on LOK is given as “E (category E is less than 50%)”.
For the compound `CNC(=O)c1cc(Oc2ccc(NC(=O)c3nc(NC)sc3-c3ccc(F)cc3C)cc2F)ccn1` [Compound 23], the inhibition at 5 µM on BRK is 50 to 79%; on EPH-B4, 50 to 79%; at HIPK3 it was under 50%; on LCK, 80 to 89%; at P38-b, under 50%; at TRKA it was 80 to 89%. For the same compound, the “inhibition of kinase activity, EPH-A5” value at EPH-A5 is on record as “D (category D for 50-79)”. For the same compound, on EPH-B2, the “inhibition of kinase activity, EPH-B2” value is reported as “D (category D for 50-79)”. Moreover, the “inhibition of kinase activity, LOK” value at LOK is given as “D (category D for 50-79)”.
Consider `CNC(=O)c1cc(Oc2ccc(NC(=O)c3nc(OC)oc3-c3ccc(F)c(F)c3)cc2F)ccn1` [Compound 24], for which the inhibition at 5 µM on BRK is under 50%; on EPH-B4 it was under 50%; on HIPK3, 50 to 79%; at LCK, 50 to 79%; on P38-b, under 50%; on TRKA, 50 to 79%. Further, the “inhibition of kinase activity, EPH-A5” value at EPH-A5 is given as “E (category E is less than 50%)”. Besides, at EPH-B2, the “inhibition of kinase activity, EPH-B2” value was “E (category E is less than 50%)”. Besides, at LOK, the “inhibition of kinase activity, LOK” value is on record as “C (C=80%-89% at 5 um)”.
Consider `CNC(=O)c1cc(Oc2ccc(NC(=O)c3nc(OC)oc3-c3ccc(F)s3)cc2F)ccn1` [Compound 25], for which the inhibition at 5 µM at BRK, at EPH-B4, on HIPK3, at LCK, at P38-b and on TRKA was under 50% in each case. In addition, at EPH-A5, the “inhibition of kinase activity, EPH-A5” value was “E (category E is less than 50%)”. For the same compound, the “inhibition of kinase activity, EPH-B2” value at EPH-B2 is “E (category E is less than 50%)”. For the same compound, the “inhibition of kinase activity, LOK” value on LOK is on record as “D (category D for 50-79)”.
Turning to `CNC(=O)c1cc(Oc2ccc(NC(=O)c3nc(C4CC4)oc3-c3ccc(F)cc3)cc2F)ccn1` [Compound 26], the inhibition at 5 µM on BRK is 90 to 94%; at EPH-B4 it was 80 to 89%; at HIPK3 it was 50 to 79%; on LCK, 90 to 94%; at P38-b, 50 to 79%; on TRKA, 80 to 89%. Moreover, the “inhibition of kinase activity, EPH-A5” value on EPH-A5 was “C (C=80%-89% at 5 um)”. The “inhibition of kinase activity, EPH-B2” value on EPH-B2 is listed as “C (C=80%-89% at 5 um)”. For the same compound, the “inhibition of kinase activity, LOK” value on LOK is listed as “C (C=80%-89% at 5 um)”.
